Data as given in publication PMC4601599, “High-resolution structures of Lactobacillus salivarius transketolase in the presence and absence of thiamine pyrophosphate” (Acta Crystallographica. Section F, Structural Biology …, 2015).

Columns and labels:
[1] = target: T1, LsTktA (Lactobacillus salivarius UCC118 transketolase) (Ligilactobacillus salivarius, UniProt Q1WQU8); experiment: X-ray crystal structure of co-crystal, […] A; format: binding; settings: Mg2+; co-crystallised with 0.5 mM TPP and 2 mM MgCl2; pH 7.5; 293 K; site at dimer interface
T1 construct: gene tktA; pOPINF, His-tagged, expressed in E. coli Rosetta pLysS (DE3); 680 residues with tag; 662 residues modelled; homodimer; megaplasmid pMP118-encoded
T1 sequence (Q1WQU8 1-663): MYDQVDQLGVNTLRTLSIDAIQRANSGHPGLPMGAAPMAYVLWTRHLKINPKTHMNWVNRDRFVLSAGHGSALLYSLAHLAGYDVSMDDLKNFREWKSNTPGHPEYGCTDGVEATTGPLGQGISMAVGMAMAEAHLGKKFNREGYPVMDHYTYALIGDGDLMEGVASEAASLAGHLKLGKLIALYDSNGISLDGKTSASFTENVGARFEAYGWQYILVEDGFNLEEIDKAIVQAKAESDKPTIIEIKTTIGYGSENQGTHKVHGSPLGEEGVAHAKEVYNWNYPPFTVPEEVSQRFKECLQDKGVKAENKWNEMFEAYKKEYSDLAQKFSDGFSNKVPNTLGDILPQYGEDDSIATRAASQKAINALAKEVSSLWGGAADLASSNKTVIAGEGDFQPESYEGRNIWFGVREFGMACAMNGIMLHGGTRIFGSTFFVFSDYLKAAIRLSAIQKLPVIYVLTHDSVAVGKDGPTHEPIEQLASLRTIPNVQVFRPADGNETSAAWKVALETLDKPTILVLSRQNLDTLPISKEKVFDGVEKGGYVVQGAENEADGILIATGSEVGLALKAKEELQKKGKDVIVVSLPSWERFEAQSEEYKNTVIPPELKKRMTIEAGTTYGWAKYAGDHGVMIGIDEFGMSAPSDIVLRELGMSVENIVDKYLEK

[2] = target: the molecule itself; experiment: SEC-MALS; Superdex 200 Increase 10/300 GL, 20 mM Tris-HCl pH 7.5, 200 mM NaCl, 0.5 mM TCEP, 20 C, with and without 0.5 mM TPP; about 1 mg/ml; dimer and monomer

Row | Molecule | X-ray crystal structure of co-crystal, 2.29 A [1] | stoichiometry N [2]
1 | Cc1ncc(C[n+]2csc(CCOP(=O)(O)OP(=O)(O)O)c2C)c(N)n1 [thiamine pyrophosphate] | Two symmetrical TPP cofactor-binding sites are located at the LsTktA dimer interface | 
2 | Lactobacillus salivarius UCC118 transketolase (LsTktA) (enzyme, UniProt Q1WQU8 1-663, looked up, Transketolase (tktA, LSL_1946) of Lactobacillus salivarius UCC118, encoded on the megaplasmid pMP118; the histidine-tagged protein consists of 680 amino acids; 662 amino acids are modelled in the crystal structures; Crystallised apo and with TPP and Mg2+; also called L. salivarius Tkt; LSL_1946; source: E. coli Rosetta pLysS (DE3), purified (nickel-chelation chromatography, gel filtration)) MYDQVDQLGVNTLRTLSIDAIQRANSGHPGLPMGAAPMAYVLWTRHLKINPKTHMNWVNRDRFVLSAGHGSALLYSLAHLAGYDVSMDDLKNFREWKSNTPGHPEYGCTDGVEATTGPLGQGISMAVGMAMAEAHLGKKFNREGYPVMDHYTYALIGDGDLMEGVASEAASLAGHLKLGKLIALYDSNGISLDGKTSASFTENVGARFEAYGWQYILVEDGFNLEEIDKAIVQAKAESDKPTIIEIKTTIGYGSENQGTHKVHGSPLGEEGVAHAKEVYNWNYPPFTVPEEVSQRFKECLQDKGVKAENKWNEMFEAYKKEYSDLAQKFSDGFSNKVPNTLGDILPQYGEDDSIATRAASQKAINALAKEVSSLWGGAADLASSNKTVIAGEGDFQPESYEGRNIWFGVREFGMACAMNGIMLHGGTRIFGSTFFVFSDYLKAAIRLSAIQKLPVIYVLTHDSVAVGKDGPTHEPIEQLASLRTIPNVQVFRPADGNETSAAWKVALETLDKPTILVLSRQNLDTLPISKEKVFDGVEKGGYVVQGAENEADGILIATGSEVGLALKAKEELQKKGKDVIVVSLPSWERFEAQSEEYKNTVIPPELKKRMTIEAGTTYGWAKYAGDHGVMIGIDEFGMSAPSDIVLRELGMSVENIVDKYLEK |  | 2
